In patent publication US6872834B2, “Phenyl-substituted indoles and indazoles” (Ortho-McNeil Pharmaceutical, Inc., priority 2000, dated 2005):

Target: T1, histamine H3 receptor (Homo sapiens, UniProt Q9Y5N1)
T1 construct: expressed in transfected cells; membranes
Assay: [3H]-N-methylhistamine binding
Settings: membranes from histamine H3 receptor-expressing SK-N-MC cells; 0.8 nM [3H]-N-methylhistamine; 45 minutes at 25° C.
Procedure: 1(A) Transfection of Cells with Human Histamine Receptor
A 10 cm tissue culture dish with a confluent monolayer of SK-N-MC cells was split two days prior to transfection. Using sterile technique the media was removed and the cells were detached from the dish by the addition of trypsin. One fifth of the cells were then placed onto a new 10 cm dish. Cells were grown in a 37° C. incubator with 5% CO2 in Minimal Essential Media Eagle with 10% Fetal Bovine Serum. After two days cells were approximately 80% confluent. These were removed from the dish with trypsin and pelleted in a clinical centrifuge. […] One μg supercoiled H3 receptor cDNA was added to the cells and mixed. The voltage for the electroporation was set at 0.25 kV, the capacitance is set at 960 μF.
After electroporation the cells were diluted into 10 mL complete media and plated onto four 10 cm dishes. Due to the variability in the efficiency of electroporation, four different concentrations of cells were plated. The ratios used were: 1:20, 1:10, and 1:5, with the remainder of the cells being added to the fourth dish. The cells were allowed to recover for 24 hours before adding the selection media (complete media with 600 μg/ml G418). After 10 days dishes were analyzed for surviving colonies of cells. Dishes with well-isolated colonies were used. Cells from individual colonies were isolated and tested. SK-N-MC cells were used because they give efficient coupling for inhibition of adenylate cyclase. The clones that gave the most robust inhibition of adenylate cyclase in response to histamine were used for further study.
1(B) [3H]-N-methylhistamine Binding
Cell pellets from histamine H3 receptor-expressing SK-N-MC cells were homogenized in 20 mM TrisHCl/0.5 mM EDTA. Supernatants from a 800 g spin were collected, reccentrifuged at 30,000 g for 30 minutes. Pellets were rehomogenized in 50 mM Tris/5 mM EDTA (pH 7.4). Membranes were incubated with 0.8 nM [^3H]-N-methylhistamine plus/minus test compounds for 45 minutes at 25° C. and harvested by rapid filtration over GF/C glass fiber filters (pretreated with 0.3% polyethylenimine) followed by four washes with ice cold buffer. Filters were dried, added to 4 mL scintillation cocktail and then counted on a liquid scintillation counter. Non-specific binding was defined with 10 μM histamine.

T1 sequence (Q9Y5N1 whole entry): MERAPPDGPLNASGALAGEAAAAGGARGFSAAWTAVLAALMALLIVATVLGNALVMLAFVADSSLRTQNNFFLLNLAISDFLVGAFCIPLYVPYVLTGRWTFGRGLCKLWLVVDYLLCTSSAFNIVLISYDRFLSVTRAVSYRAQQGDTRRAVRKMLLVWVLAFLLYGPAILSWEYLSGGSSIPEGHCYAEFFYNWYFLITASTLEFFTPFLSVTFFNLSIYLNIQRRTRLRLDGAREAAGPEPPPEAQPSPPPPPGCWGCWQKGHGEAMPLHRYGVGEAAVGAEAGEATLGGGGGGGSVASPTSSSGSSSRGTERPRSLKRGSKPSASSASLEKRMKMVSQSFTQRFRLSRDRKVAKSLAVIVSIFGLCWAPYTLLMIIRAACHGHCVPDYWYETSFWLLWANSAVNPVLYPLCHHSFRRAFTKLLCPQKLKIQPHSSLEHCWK

Ki | SMILES
7 nM | CS(=O)(=O)n1c(-c2ccc(OCCCN3CCCCC3)cc2)cc2ccccc21 [Example 1, 2-[4-[3-Piperidinopropoxy]phenyl)-1-(methylsulfonyl)-1H-indole]
48 nM | c1ccc2[nH]c(-c3ccc(OCCCN4CCCCC4)cc3)cc2c1 [Example 2, 2-[4-(3-Piperidinopropoxy]phenyl)-1H-indole]
77 nM | CN1CCCC1CCOc1ccc(-c2cc3ccccc3n2S(C)(=O)=O)cc1 (centres unmarked) [Example 3, 2-[4-[2-[1-(methyl)-2-pyrrolidinyl]ethoxy]phenyl)-1-(methylsulfonyl)-1H-indole]
100 nM | CN1CCCC1CCOc1ccc(-c2cc3ccccc3[nH]2)cc1 (centres unmarked) [Example 4, 2-[4-[2-[1-(methyl)-2-pyrrolidinyl]ethoxy]phenyl)-1H-indole]
107 nM | CN1CCC(Oc2ccc(-c3cc4ccccc4n3S(C)(=O)=O)cc2)CC1 [Example 5, 2-[4-[1-(methyl)-4-piperidinyl]oxyphenyl]-1-(methylsulfonyl)-1H-indole]
390 nM | CN1CCC(Oc2ccc(-c3cc4ccccc4[nH]3)cc2)CC1 [Example 6, 2-[4-[1-(methyl)-4-piperidinyl]oxyphenyl] 1H-indole]
120 nM | CN(C)CCCOc1ccc(-c2cc3ccccc3n2S(C)(=O)=O)cc1 [Example 7, 2-[4-[3-Dimethylaminopropoxy]phenyl]-1-(methylsulfonyl)-1H-indole]
500 nM | CN(C)CCCOc1ccc(-c2cc3ccccc3[nH]2)cc1 [Example 8, 2-[4-[3-Dimethylaminopropoxy]phenyl] 1H-indole]
5000 nM | CS(=O)(=O)n1c(-c2ccc(OCc3ccncc3)cc2)cc2ccccc21 [Example 9, 2-[4-[4-Pyridinyl]methoxyphenyl]-1-(methylsulfonyl)-1H-indole]
369 nM | CCN(CC)CCOc1ccc(-c2cc3ccccc3n2S(C)(=O)=O)cc1 [Example 10, 2-[4-[2-Diethylaminoethoxy]phenyl]-1-(methylsulfonyl)-1H-indole]
523 nM | CCN(CC)CCOc1ccc(-c2cc3ccccc3[nH]2)cc1 [Example 11, 2-[4-[2-Diethylaminoethoxy]phenyl]-1H-indole]
33 nM | CS(=O)(=O)n1c(-c2cccc(OCCCN3CCCCC3)c2)cc2ccccc21 [Example 15, 2-[3-[3-Piperidinopropoxy]phenyl)-1-(methylsulfonyl)-1H-indole]
2000 nM | CN1CCN(CCCOc2ccc(-c3cc4ccccc4[nH]3)cc2)CC1 [Example 16, 2-(4-(3-(4-Methylpiperazino)propoxy)phenyl)indole]
3000 nM | CN1CCN(CCCOc2ccc(-c3cc4cc(Cl)ccc4n3S(C)(=O)=O)cc2)CC1 [Example 17]
